The subject of test [1] is IC2 M. tuberculosis MDR clinical isolate. As to the kind of experiment: REMA MIC90, broad spectrum of microorganisms. The conditions noted are these: Mycobacterium tuberculosis, read-out: MIC to Compound 2. In kind it is cell-based.
Test [2] has as its system IC1 M. tuberculosis MDR clinical isolate. The experiment in a line: REMA MIC90, broad spectrum of microorganisms. The note with it: Mycobacterium tuberculosis, read-out: MIC to Compound 2. In kind it is cell-based.

SMILES strings stand for the structures.

In the case of `CCOC(=O)c1ccc([S-])[n+]([O-])c1.[Na+]` [Compound 2, Sodium 5-(ethoxycarbonyl)pyridine-2-thiolate 1-oxide], the MIC in test [1] and in test [2] was 25 µg/mL throughout.

As a reminder, the MIC is the smallest concentration in the dilution series that meets the test's criterion for growth inhibition.
